# Assay results taken from patent US20190137505A1 (THE ARIZONA BOARD OF REGENTS ON BEHALF OF THE UNIVERSITY OF …, priority 2015, published 2019).
# Experiments:
# glu-Pg = molecular target: T1, glu-Pg (Homo sapiens, UniProt P00747); assay: Reaction of MG-modified Pg with activating enzymes (STK, tPA, uPA), SDS-PAGE and silver staining; type: biochemical; details: for Pn heavy and light chain bands versus unmodified gel: MG-modified Pg, higher concentration of MG, up to 90 minutes
# T1 construct: Glu-Pg, uPA, tPA, fibrinogen, and chromogenic substrate for Pn were purchased from Molecular Innovations (Novi, Mich.); purchased Molecular Innovations (Novi, Mich.)
# Description: Physiologically relevant concentrations (Chaplen et al., 1998, Ahmed et al., 2002) of MG were utilized for all LC-MS/MS, silver stain and enzyme inhibition analyses of Pg. glu-Pg (10 μg) was incubated with MG (1-500 μM) at 37° C. for 24 Hrs. Samples for STK assay were further processed before being resolved on a 12% SDS-PAGE gel following removal from 37° C. oven.
# Upon removal from the 37° C. oven, Pg was buffer exchanged in a 3-kDa spin-filter (Amicon YM-3; Millipore)) to ensure the removal of MG from the sample. Following centrifugation, the volume of each sample was brought to 150 μL, and divided into five 30 μL samples for different incubations. STK (3U), tPA (100 nM) or uPA (100 nM) was used per sample. STK, tPA or uPA was incubated with Pg for 0, 5, 15, 30, 60, or 90 min. At the conclusion of the enzyme incubation, samples were denatured with 5% BME and heated for 5 minutes at 100° C. on a heat block prior to being resolved on a 12% SDS-PAGE gel.
# Gels were stained using a modified version of the method from (Blum et al., 1987). Gel was fixed overnight in a solution of 50% MeOH, 12% glacial acetic acid, and 0.0185% formaldehyde. The gel was washed 2×20 min with 50% EtOH followed by 20 minutes with 30% EtOH. The gel was subjected to a pretreatment solution of 0.2 mg/ml of sodium thiosulfate (Na2S2O3) for 1 minute and was rinsed 3×20 sec with MilliQ H2O. […] Following two 20-second MilliQ H2O washes, the gel was immediately developed with a solution of 60 mg/ml Na2CO3, 4 μg/ml sodium thiosulfate, and 0.0185% formaldehyde until protein bands were visible. Upon acceptable staining progression, the gel was rinsed twice for 2 min with MilliQ H2O before the reaction was stopped with a solution of 50% MeOH and 12% glacial acetic acid. Gel was washed and stored in 50% MeOH. Gel was imaged with a ChemiDoc XRS System (BioRad).
# Pg = molecular target: T2, Pg (Homo sapiens, UniProt P00747); assay: Two-dimensional gel electrophoresis of MG-modified Pg (isoelectric point shift); type: physicochemical; details: 24-hr 500 μM MG; 4-7 pH isoelectric focusing strip
# T2 construct: Glu-Pg, uPA, tPA, fibrinogen, and chromogenic substrate for Pn were purchased from Molecular Innovations (Novi, Mich.); purchased Molecular Innovations (Novi, Mich.)
# Description: 10 μg Pg was incubated with MG (50-500 μM) in tris-buffered saline (TBS) for 24 hours at 37° C. Following modification, sample volumes were increased to 150 μL and placed in 5 kDa spin filters to reduce volume and remove excess MG from solution.
# MG-modified (500 μM) and unmodified Pg control (same incubation conditions without MG) were added to 250 μL amount of rehydration buffer (6M urea, 2M thiourea, 2% CHAPS, 100 mM DTT, 0.5% 3-10 ampholytes) and 5 μL of 3-10 ampholytes (Bio-Rad). Sample rehydrated with a 13 cm 4-7 pH isoelectric focusing strip (GE Healthcare) overnight. Following rehydration, strips were placed in a Bio-Rad PROTEAN IEF Cell focusing instrument. Strips were first focused for 1 hour at 500 V, and then run at a maximum of 8,000V until the strips have reached a final total of 45,000 V/hrs at which point gels are held at 500V until removed. Focused strips were removed, reduced with DTT, cysteines carbamidomethylated with iodoacetamide, and run on a 4-20% gradient Criterion gel for 55 minutes at 200V. Gels were stained for stained according to manufacturer instructions with Imperial Blue Protein (ThermoScientific, Rockford, Ill.) and destained immediately with water. Gel bands were excised and trypsin digested.
# T1 sequence (P00747 20-810 limits assumed): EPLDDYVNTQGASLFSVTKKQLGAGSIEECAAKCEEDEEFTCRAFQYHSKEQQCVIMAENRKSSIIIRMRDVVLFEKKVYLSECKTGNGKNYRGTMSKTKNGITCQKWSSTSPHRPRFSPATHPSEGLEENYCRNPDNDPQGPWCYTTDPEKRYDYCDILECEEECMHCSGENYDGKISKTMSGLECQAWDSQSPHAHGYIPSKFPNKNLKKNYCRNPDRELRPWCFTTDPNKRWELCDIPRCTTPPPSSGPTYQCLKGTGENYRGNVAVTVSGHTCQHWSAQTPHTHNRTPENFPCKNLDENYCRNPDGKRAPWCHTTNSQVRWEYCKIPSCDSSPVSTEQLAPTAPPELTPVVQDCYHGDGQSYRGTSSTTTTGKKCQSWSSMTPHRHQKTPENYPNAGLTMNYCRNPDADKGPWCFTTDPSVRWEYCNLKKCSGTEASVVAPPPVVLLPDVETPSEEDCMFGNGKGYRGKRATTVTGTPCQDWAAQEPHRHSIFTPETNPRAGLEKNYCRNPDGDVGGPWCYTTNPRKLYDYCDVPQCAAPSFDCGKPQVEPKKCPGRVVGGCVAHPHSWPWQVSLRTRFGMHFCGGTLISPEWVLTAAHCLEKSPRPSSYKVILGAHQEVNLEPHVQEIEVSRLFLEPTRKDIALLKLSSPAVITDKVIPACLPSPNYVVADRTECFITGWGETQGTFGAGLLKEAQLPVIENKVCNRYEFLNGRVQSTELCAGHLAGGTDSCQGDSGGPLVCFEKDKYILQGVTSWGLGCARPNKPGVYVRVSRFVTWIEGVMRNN
# T2 sequence (P00747 20-810 limits assumed): as above
smiles,measurement,setting,value
"CC(=O)C=O [MG, Methylglyoxal]",Activation of Pg by STK (cleavage products on silver-stained gel),"glu-Pg; 24-hr 100 μM MG-modified glu-Pg, STK 0 to 60 min",inhibited
same,Pn heavy and light chain bands versus unmodified gel,glu-Pg; tPA,lesser amounts
same,Pn heavy and light chain bands versus unmodified gel,glu-Pg; uPA,lesser amounts
same,pI of MG-modified Pg,Pg,5.8-6.7
